Reference: patent US20100292229A1, “TRYPHOSTIN-ANALOGS FOR THE TREATMENT OF CELL PROLIFERATIVE DISEASES” (The Board of Regents of the University of Texas System, priority 2006, published 2010)

How the values were obtained:
[1] = tested on: Normal dermal human fibroblasts (NDF); assay: Growth/survival and MTT assay of normal dermal fibroblasts; type: cell-based
Experimental: Normal dermal human fibroblasts were treated for 1 h at 5 μM Degrasyn before cells were rinsed and cultured in normal growth media for 72 h. Control and treated cells were photographed after 72 h. […] An MTT assay was performed with NDF and A375 cells under these conditions (1 h treatment, 72 h incubation) to estimate the IC50 distinctions between these populations.
MTT (viability) assay. MTT reagent (20 μl of 5 mg/ml stock solution, Sigma) is added to the cells and the plates are incubated at 37° C. for another 2 h. Cells are lysed by adding 100 μl of lysis buffer (20% SDS in 50% N,N-dimethylformamide (Sigma) adjusted to pH 4.7 by 80% acetic acid and 1 M HCl such that the final concentration of acetic acid is 2.5% and HCl is 2.5%) into each well and incubated for 6 h. The OD570 of each sample is determined by using a SPECTRA MAX M2 plate reader (Molecular Devices). The OD in control and treated wells is used as an estimate of the effect of compounds on cell growth and survival.
Cell lines. […] A375 melanoma cells were grown and maintained in the same media. […]

nucleophosmin (NPM) = target: T1, nucleophosmin (NPM) (Homo sapiens, UniProt P06748); assay: Affinity recovery of Degrasyn interactive proteins with streptavidin beads; type: binding; conditions: MM-1 or K562 cell lysates
T1 construct: endogenous in cells; host or cells: MM-1 and K562 cell lysates
T1 sequence (P06748 whole entry): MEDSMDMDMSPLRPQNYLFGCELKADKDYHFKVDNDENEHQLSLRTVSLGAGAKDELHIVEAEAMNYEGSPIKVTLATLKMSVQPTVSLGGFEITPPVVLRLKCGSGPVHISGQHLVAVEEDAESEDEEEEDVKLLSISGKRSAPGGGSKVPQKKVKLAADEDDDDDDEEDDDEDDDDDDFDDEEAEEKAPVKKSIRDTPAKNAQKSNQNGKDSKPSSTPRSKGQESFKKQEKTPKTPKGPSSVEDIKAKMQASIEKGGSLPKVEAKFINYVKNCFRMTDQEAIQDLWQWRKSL
Experimental: Biotinylated-Degrasyn (10 μM) was incubated with lysates from MM-1 cells (10 mg total protein) and interactive proteins were assessed by affinity recovery using Streptavidin-conjugated beads to bind biotinylated-Degrasyn. Free Degrasyn (10 μM) was incubated with biotinylated-Degrasyn in a parallel experiment to assist in identifying specific protein:Degrasyn interactions. Affinity complexes were washed and Streptavidin-Bio-Deg interaction proteins were assessed by disrupting protein complexes with SDS-sample buffer and resolving proteins by SDS-PAGE. The resolved proteins were detected by silver-staining the gel. Protein bands present in the biotinylated-Degrasyn sample that were absent in samples co-incubated with free Degrasyn were identified and cut from the gel. A 38 kDa protein band was prominent in this assessment and was subjected to in gel trypsinization and identification of HPLC resolved tryptic peptides by tandem mass spectroscopy analysis (David Hawke, Department of Molecular Pathology, M.D. Anderson Cancer Center). This analysis identified nucleophosmin (NPM) as a Degrasyn interactive protein.
To further assess the interaction between NPM and Degrasyn, biotinylated-Degrasyn/streptavidin beads were incubated with MM-1 (left) or K562 (right) cell lysates. In parallel, lysates were co-incubated with free Degrasyn to determine the specificity of the interaction with NPM. […]

[2] = tested on: CML cells expressing the T315I mutant BCR-ABL; assay: Clonal outgrowth of CML cells from imatinib resistant patients; type: cell-based, human; conditions: cells of 2 patients that failed imatinib therapy
Description: Isolation of cellular fractions from clinical specimens. Mononuclear cells were isolated from peripheral blood or bone marrow of imatinib-resistant CML patients after informed consent was obtained for a protocol reviewed and approved by the Institutional Review Board of M.D. Anderson Cancer Center. Cells were purified on Ficoll-Hypaque gradients.

[3] = tested on: c-myc and activated Stat3; assay: c-myc, pY-Stat3, Stat3, p53, p-MAPK immunoblot in A375 melanoma cells; type: cell-based; conditions: A375, 2 h
Experimental: A375 melanoma cells were pretreated with Degrasyn at the concentration noted for 2 h before the addition of 10 ng/ml IL-6 for 15 min. Cell lysates were prepared and equal protein aliquots were resolved by SDS-PAGE and immunoblotted for c-myc, p53 (wild-type), activated Stat3 (pY-Stat3), Stat3 and activated Erk1/2 kinase (p-MAPK).
Western Blot analysis. Cells were harvested, washed twice in cold 1×PBS and lysed in modified RIPA lysis buffer (150 mM NaCl, 1% NP-40, 0.5% Na-deoxycholate [DOC], 0.1% Na-dodecyl sulfate [SDS], 50 mM Tris-HCl (pH 7.5), 1 mM EDTA, 1 mM NaF, 2 mM Na-vanadate, with protease inhibitors (1 mM PMSF, 1 mM benzamidine, 10 μg/ml aprotinin, 10 μg/ml leupeptin) on ice for 30 min. The lysed cells were centrifuged at 13,000 rpm for 30 min and the supernatant collected. The protein concentration of the cell lysate was determined by the Bradford Protein Assay. Fifty to 60 μg of protein were resolved in a 10% SDS-PAGE, and transferred to a PVDF membrane. Western blotting was performed using specific primary antibodies Peroxidase-conjugated affiniPure anti-Mouse Anti-Rabbit secondary antibodies (Jackson Immunoresearch Laboratories, West Grove, Pa.). The proteins were visualized with ECL Plus reagents (Amersham Biosciences).

Question: Which “Growth or survival of normal dermal fibroblasts” value ([1]; 5 μM for 1 h, then 72 h in normal growth media) does the source give for `CCC[C@H](NC(=O)/C(C#N)=C/c1cccc(Br)n1)c1ccccc1` [Degrasyn] here?
Answer: The value was “did not affect the growth or survival of NDFs”.

Question: What about the “Activity against melanoma tumors relative to normal dermal fibroblast” value ([1]; A375 vs NDF, MTT, 1 h treatment, 72 h incubation) of the same molecule?
Answer: The value was over 5 fold.

Question: And the “Interaction with NPM” value (nucleophosmin (NPM))?
Answer: Its value is “interacts with NPM”.

Question: What about the “Colony formation of leukemic cells” value [2] of the same molecule?
Answer: The value was “more effective than imatinib in suppressing colony formation”.

Question: And the “c-myc protein levels and Stat3 activation” value ([3]; then IL-6 10 ng/ml 15 min)?
Answer: The value was “reduced c-myc protein levels suppressed Stat3 activation at higher concentrations”.

Question: And the “Stat3, p-MAPK and p53 levels” value ([3]; then IL-6 15 min)?
Answer: Its value is “not affected”.
